Reference: patent US9296723B2, “NAMPT inhibitors” (AbbVie Inc., priority 2012, dated 2016)

Legend:
NAMPT [1] = molecular target: T1, NAMPT (Homo sapiens, UniProt P43490); assay: TR-FRET Binding Assay of NAMPT with PRPP; conditions: 2 nM NAMPT, 2 nM probe, 200 µM PRPP and 2.5 mM ATP, equilibrated 16 hours
Outline: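 Substrates present: PRPP at 200 µM and ATP at 2.5 mM, final, alongside 2 nM enzyme, 2 nM tracer and 1 nM terbium anti-His donor in 2% DMSO. A 16-hour equilibration preceded the time-resolved FRET read, allowing compounds to be enzymatically modified.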

NAMPT [2] = molecular target: T1, NAMPT; assay: Time-Resolved Fluorescence Resonance Energy Transfer (TR-FRET) Binding Assay of NAMPT; conditions: 6.8 nM NAMPT, 200 nM probe, equilibrated 3 hours, no substrates
Outline: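 IC50s come from four-parameter logistic fits of control-normalized Em520/Em495 TR-FRET ratios (Ex 337 nm) against compound concentration. Before reading, enzyme, probe, antibody and compound equilibrated for 3 h at room temperature.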

PC3 cells = assay: NAMPT Cell Proliferation Assay (Cell Titer Glo); format: cell-based; conditions: Homo sapiens, PC-3, 120 h, incubated 5 days, cell viability
Outline: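 Viability measured by Cell Titer Glo luminescence after 5-day exposure of attached PC3 cells to compound, dosed as 10-fold serial dilutions ([…]) in RPMI/10% FBS at 37 °C and 5% CO2. Percent inhibition fitted to sigmoidal dose-response curves for IC50.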

T1 sequence (P43490 whole entry): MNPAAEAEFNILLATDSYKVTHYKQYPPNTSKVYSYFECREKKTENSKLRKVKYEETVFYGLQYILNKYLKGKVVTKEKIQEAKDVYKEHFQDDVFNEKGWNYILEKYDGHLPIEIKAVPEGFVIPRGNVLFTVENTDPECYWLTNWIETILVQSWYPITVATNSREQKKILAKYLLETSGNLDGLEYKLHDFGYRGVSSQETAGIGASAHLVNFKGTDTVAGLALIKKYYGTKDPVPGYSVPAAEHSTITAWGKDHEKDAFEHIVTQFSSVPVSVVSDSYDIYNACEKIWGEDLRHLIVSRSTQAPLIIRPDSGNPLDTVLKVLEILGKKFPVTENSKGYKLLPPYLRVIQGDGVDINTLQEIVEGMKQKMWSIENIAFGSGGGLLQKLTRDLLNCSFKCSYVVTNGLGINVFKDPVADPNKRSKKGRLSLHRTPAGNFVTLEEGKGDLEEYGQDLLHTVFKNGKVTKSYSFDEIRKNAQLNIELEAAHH

| SMILES | IC50 (NAMPT [1]) | IC50 (NAMPT [2]) | IC50 (PC3 cells) |
| --- | --- | --- | --- |
| CC[C@H](C)C(=O)N1CCC(Oc2ccc(NC(=O)N3CC(c4cccnc4)C3)cc2)CC1 [Example 4, N-[4-({1-[(2S)-2-methylbutanoyl]piperidin-4-yl}oxy)phenyl]-3-(pyridin-3-yl)azetidine-1-carboxamide] | 0.195 nM | 19.7 nM | 14 nM |
| CC(C)(C)CC(=O)N1CCC(c2ccc(NC(=O)N3CC(c4cccnc4)C3)cc2)C1 (stereo not drawn) [Example 289, N-{4-[1-(3,3-dimethylbutanoyl)pyrrolidin-3-yl]phenyl}-3-(pyridin-3-yl)azetidine-1-carboxamide] | 0.204 nM | 29.6 nM | 35.2 nM |
| COCC(=O)N1CCC(c2ccc(NC(=O)N3CC(c4cccnc4)C3)cc2)CC1 [Example 184, N-{4-[1-(methoxyacetyl)piperidin-4-yl]phenyl}-3-(pyridin-3-yl)azetidine-1-carboxamide] | 0.305 nM | 18.5 nM | 61.2 nM |
| CC(C)CCC(=O)N1CCC(c2ccc(NC(=O)N3CC(c4cccnc4)C3)cc2)CC1 [Example 166, N-{4-[1-(4-methylpentanoyl)piperidin-4-yl]phenyl}-3-(pyridin-3-yl)azetidine-1-carboxamide] | 0.337 nM | 17.2 nM | 66.4 nM |
| O=C(CC1C[C@@H]2CC[C@H]1C2)N1CCC(c2ccc(NC(=O)N3CC(c4cccnc4)C3)cc2)C1 (stereo partly drawn) [Example 260, N-(4-{1-[(1S,4R)-bicyclo[2.2.1]hept-2-ylacetyl]pyrrolidin-3-yl}phenyl)-3-(pyridin-3-yl)azetidine-1-carboxamide] | 0.302 nM | 38.4 nM | 94.9 nM |
| O=C(CCN1CCCCC1)N1CCC(c2ccc(NC(=O)N3CC(c4cccnc4)C3)cc2)C1 (stereo not drawn) [Example 287, N-(4-{1-[3-(piperidin-1-yl)propanoyl]pyrrolidin-3-yl}phenyl)-3-(pyridin-3-yl)azetidine-1-carboxamide] | 0.189 nM | 30.1 nM | 37.4 nM |
| COCC(=O)N1CC(c2ccc(NC(=O)N3CC(c4cccnc4)C3)cc2)C1 [Example 218, N-{4-[1-(methoxyacetyl)azetidin-3-yl]phenyl}-3-(pyridin-3-yl)azetidine-1-carboxamide] | 0.451 nM | 171 nM | 188 nM |
| O=C(CN1CCOCC1)N1CCC(c2ccc(NC(=O)N3CC(c4cccnc4)C3)cc2)C1 (stereo not drawn) [Example 263, N-{4-[1-(morpholin-4-ylacetyl)pyrrolidin-3-yl]phenyl}-3-(pyridin-3-yl)azetidine-1-carboxamide] | 0.239 nM | 143 nM | 365 nM |
| O=C(CN1CCOCC1)N1CCC(c2ccc(NC(=O)N3CC(c4cccnc4)C3)cc2)CC1 [Example 187, N-{4-[1-(morpholin-4-ylacetyl)piperidin-4-yl]phenyl}-3-(pyridin-3-yl)azetidine-1-carboxamide] | 0.292 nM | 39.3 nM | 86.3 nM |
| CC(C)C(=O)N1CC=C(c2ccc(NC(=O)N3CC(c4cccnc4)C3)cc2)CC1 [Example 27, N-{4-[1-(2-methylpropanoyl)-1,2,3,6-tetrahydropyridin-4-yl]phenyl}-3-(pyridin-3-yl)azetidine-1-carboxamide] | 0.243 nM | 13 nM | 9.2 nM |
| O=C(CC1CCCCC1)N1CC(c2ccc(NC(=O)N3CC(c4cccnc4)C3)cc2)C1 [Example 212, N-{4-[1-(cyclohexylacetyl)azetidin-3-yl]phenyl}-3-(pyridin-3-yl)azetidine-1-carboxamide] | 0.464 nM | 40.9 nM | 20.6 nM |
| COCCOCC(=O)N1CCC(c2ccc(NC(=O)N3CC(c4cccnc4)C3)cc2)CC1 [Example 176, N-(4-{1-[(2-methoxyethoxy)acetyl]piperidin-4-yl}phenyl)-3-(pyridin-3-yl)azetidine-1-carboxamide] | 0.35 nM | 65.5 nM | 88.9 nM |
| CCC(C)(C)C(=O)N1CC(Oc2ccc(NC(=O)N3CC(c4cccnc4)C3)cc2)C1 [Example 131, N-(4-{[1-(2,2-dimethylbutanoyl)azetidin-3-yl]oxy}phenyl)-3-(pyridin-3-yl)azetidine-1-carboxamide] | 0.491 nM | 7.72 nM | 8.18 nM |
| CSCC(=O)N1CC=C(c2ccc(NC(=O)N3CC(c4cccnc4)C3)cc2)CC1 [Example 21, N-(4-{1-[(methylsulfanyl)acetyl]-1,2,3,6-tetrahydropyridin-4-yl}phenyl)-3-(pyridin-3-yl)azetidine-1-carboxamide] | 0.381 nM | 32.5 nM | 33.7 nM |
| O=C(CN1CCOCC1)N1CC[C@@H](Oc2ccc(NC(=O)N3CC(c4cccnc4)C3)cc2)C1 [Example 302, N-(4-{[(3R)-1-(morpholin-4-ylacetyl)pyrrolidin-3-yl]oxy}phenyl)-3-(pyridin-3-yl)azetidine-1-carboxamide] | 0.393 nM | 337 nM | 141 nM |
| CCC(C)(C)C(=O)N1CC(c2ccc(NC(=O)N3CC(c4cccnc4)C3)cc2)C1 [Example 204, N-{4-[1-(2,2-dimethylbutanoyl)azetidin-3-yl]phenyl}-3-(pyridin-3-yl)azetidine-1-carboxamide] | 0.349 nM | 48.6 nM | 60.4 nM |
| O=C(Nc1ccc(OC2CCN(C(=O)c3cccs3)CC2)cc1)N1CC(c2cccnc2)C1 [Example 32, 3-(pyridin-3-yl)-N-(4-{[1-(thiophen-2-ylcarbonyl)piperidin-4-yl]oxy}phenyl)azetidine-1-carboxamide] | 0.209 nM | 18.8 nM | 58.7 nM |
| CC(C)(C)C(=O)N1CC(Oc2ccc(NC(=O)N3CC(c4cccnc4)C3)cc2)C1 [Example 128, N-(4-{[1-(2,2-dimethylpropanoyl)azetidin-3-yl]oxy}phenyl)-3-(pyridin-3-yl)azetidine-1-carboxamide] | 0.519 nM | 30.4 nM | 8.36 nM |
| O=C(Nc1ccc(C2CN(C(=O)c3cccs3)C2)cc1)N1CC(c2cccnc2)C1 [Example 222, 3-(pyridin-3-yl)-N-{4-[1-(thiophen-2-ylcarbonyl)azetidin-3-yl]phenyl}azetidine-1-carboxamide] | 0.183 nM | 10.7 nM | 11.9 nM |
| CC(C)CN1CC(c2ccc(NC(=O)N3CC(c4cccnc4)C3)cc2)C1 [Example 251, N-{4-[1-(2-methylpropyl)azetidin-3-yl]phenyl}-3-(pyridin-3-yl)azetidine-1-carboxamide] | 0.365 nM | 382 nM | 212 nM |
| O=C(CN1CCOCC1)N1CC(Oc2ccc(NC(=O)N3CC(c4cccnc4)C3)cc2)C1 [Example 143, N-(4-{[1-(morpholin-4-ylacetyl)azetidin-3-yl]oxy}phenyl)-3-(pyridin-3-yl)azetidine-1-carboxamide] | 0.763 nM | 136 nM | 82.2 nM |
| O=C(CC1C[C@@H]2CC[C@H]1C2)N1CC(c2ccc(NC(=O)N3CC(c4cccnc4)C3)cc2)C1 (stereo partly drawn) [Example 200, N-(4-{1-[(1S,4R)-bicyclo[2.2.1]hept-2-ylacetyl]azetidin-3-yl}phenyl)-3-(pyridin-3-yl)azetidine-1-carboxamide] | 0.382 nM | 36.4 nM | 17 nM |
| CC(C)(C)OC(=O)N1CC[C@H](Oc2ccc(NC(=O)N3CC(c4cccnc4)C3)cc2)C1 [Example 61, tert-butyl (3S)-3-[4-({[3-(pyridin-3-yl)azetidin-1-yl]carbonyl}amino)phenoxy]pyrrolidine-1-carboxylate] | 0.31 nM | 20.9 nM | 30.7 nM |
| CC1(C(=O)N2CC(Oc3ccc(NC(=O)N4CC(c5cccnc5)C4)cc3)C2)CC1 [Example 135, N-[4-({1-[(1-methylcyclopropyl)carbonyl]azetidin-3-yl}oxy)phenyl]-3-(pyridin-3-yl)azetidine-1-carboxamide] | 0.376 nM | 28.1 nM | 8.69 nM |
| CC(=O)N1CC(Oc2ccc(NC(=O)N3CC(c4cccnc4)C3)cc2)C1 [Example 137, N-{4-[(1-acetylazetidin-3-yl)oxy]phenyl}-3-(pyridin-3-yl)azetidine-1-carboxamide] | 0.44 nM | 98.8 nM | 51.6 nM |
| CCOCC(=O)N1CCC(Oc2ccc(NC(=O)N3CC(c4cccnc4)C3)cc2)CC1 [Example 46, N-(4-{[1-(ethoxyacetyl)piperidin-4-yl]oxy}phenyl)-3-(pyridin-3-yl)azetidine-1-carboxamide] | 0.226 nM | 93.1 nM | 44.2 nM |
| O=C(CC1CC1)N1CC=C(c2ccc(NC(=O)N3CC(c4cccnc4)C3)cc2)CC1 [Example 26, N-{4-[1-(cyclopropylacetyl)-1,2,3,6-tetrahydropyridin-4-yl]phenyl}-3-(pyridin-3-yl)azetidine-1-carboxamide] | 0.724 nM | 73.6 nM | 172 nM |
| CC(C)(C)OC(=O)N1CCC(c2ccc(NC(=O)N3CC(c4cccnc4)C3)cc2)C1 (stereo not drawn) [Example 59, tert-butyl 3-[4-({[3-(pyridin-3-yl)azetidin-1-yl]carbonyl}amino)phenyl]pyrrolidine-1-carboxylate] | 0.364 nM | 38.5 nM | 68.5 nM |
| O=C(CC1CCCC1)N1CCC(c2ccc(NC(=O)N3CC(c4cccnc4)C3)cc2)CC1 [Example 196, N-{4-[1-(cyclopentylacetyl)piperidin-4-yl]phenyl}-3-(pyridin-3-yl)azetidine-1-carboxamide] | 0.281 nM | 15 nM | 64.6 nM |
